One data set concerns the target T1, (hu)CMKLR1 L1.2 cells (Homo sapiens, UniProt Q99788).
T1 construct: expressed in transfected cells; host or cells: L1.2 pre-B cell lymphoma cells
T1 sequence (Q99788 1-373): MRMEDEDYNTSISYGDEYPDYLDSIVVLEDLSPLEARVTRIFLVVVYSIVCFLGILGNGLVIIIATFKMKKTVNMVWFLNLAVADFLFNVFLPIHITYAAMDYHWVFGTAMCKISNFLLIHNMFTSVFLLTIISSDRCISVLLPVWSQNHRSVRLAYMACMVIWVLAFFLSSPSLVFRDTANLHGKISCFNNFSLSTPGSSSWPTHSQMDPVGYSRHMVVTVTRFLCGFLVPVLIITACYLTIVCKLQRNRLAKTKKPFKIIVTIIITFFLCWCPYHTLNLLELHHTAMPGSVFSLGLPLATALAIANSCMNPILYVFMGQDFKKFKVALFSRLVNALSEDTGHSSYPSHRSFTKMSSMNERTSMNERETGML
The data set is described as follows: Chemotaxis assay (chemerin-dependent CMKLR1+ cell migration). The format is cell-based. The following applies: Table 3; migration toward huChemerin, 2 h transwell; read-out: Chemotaxis IC50 μM mean ± SEM (n). Here is the method: Cell culture. (hu)CMKLR1 transfectants (generated in L1.2 pre-B cell lymphoma cells) were grown in RPMI 1640 (Corning) supplemented with L-glutamine, penicillin-streptomycin, and 10% BCS and G418-sulfate (KSE Scientific). DiscoverX PathHunter® CHO-K1 CMKLR1 β-Arrestin Cells were grown in RPMI lacking phenol red (Gibco, Life Technologies), supplemented with L-glutamine, penicillin-streptomycin, sodium pyruvate, non-essential amino acid, BCS, hygromycin, and G418-sulfate.
Chemotaxis assay. (hu)CMKLR1 L1.2 cells at 1×10^6 cell/ml were treated with 5 mM sodium butyrate (Sigma) overnight to induce hCMKLR1 expression. The next day, cells were washed in migration media (RPMI+0.5% BSA) and resuspended at 1.5-3×10^6 cell/ml. Cells were pre-incubated at RT for 10 min with various concentrations of α-NETA or test compounds (α-NETA and test compounds were reconstituted in DMSO; final DMSO concentration in each well was 0.1%). 100 ul of cells were added to the upper chamber of a 24-well transwell plate (5 um pore size, Costar). Cells were allowed to migrate toward huChemerin ([…] in migration media, bottom chamber) for 2 h, 37° C., 5% CO2. The number of migrated cells was quantified by flow cytometry (BD LSR2), and live cells were distinguished based on FSC×SSC properties. The background for this assay was typically low with 0 cells migrating to the buffer alone. For each independent trial, data was normalized to the maximum migration per compound tested and an IC50 value was generated using GraphPad Prism software. The average IC50 value for n independent trials (as specified in the table) is reported.

Data set [1] concerns Salmonella typhimurium (TA100). The data set is described as follows: Ames test for genotoxicity. Particulars: concentrations up to at least 10 uM. In general terms: The Ames test uses bacterial strains that need an amino acid and regain growth without it when mutated back.
For another data set, the target named is T2, CMKLR1 (Homo sapiens, UniProt Q99788).
T2 construct: host or cells: CHO-K1 (PathHunter)
T2 sequence (Q99788 1-373): T1 sequence (Q99788 1-373)
In words: β-arrestin recruitment assay (chemerin-mediated β-arrestin2 association with CMKLR1). The format is cell-based. Here is the method:
FIG. 15A-15D. […] IC50 values were determined based on 6-point dose-response curves for each compound. (FIG. 15A) α-NETA. […] (FIG. 15A-15C) mean±SEM, n=3-18 independent experiments. […] 0.2 ml each compound (in 10% captisol) or vehicle control was administered by oral gavage beginning one day prior to psoriasis induction. Back skin thickness was measured daily and normalized to day 0. mean±SEM, n=10 mice for vehicle and α-NETA groups pooled from two independent trials; n=3 mice for (27) and (6) from one trial.
Cell culture. […] DiscoverX PathHunter® CHO-K1 CMKLR1 β-Arrestin Cells were grown in RPMI lacking phenol red (Gibco, Life Technologies), supplemented with L-glutamine, penicillin-streptomycin, sodium pyruvate, non-essential amino acid, BCS, hygromycin, and G418-sulfate.
β-arrestin recruitment assay. CMKLR1-CHO-β-Arrestin cells were seeded in 96 well plates at 1×10^5 cell/ml-100 ul/well and incubated overnight at 37° C., 5% CO2. The next day, media was removed and cells were pre-incubated in PBS with α-NETA or test compound (95 ul/well) in a 6 point dose response curve from 100 μM to 0.3 μM for 10 min at RT. (α-NETA and test compounds were reconstituted in DMSO; final DMSO concentration in each well was 0.1%). After 10 min, 5 ul of recombinant human chemerin (R&D Systems) at a final concentration of 20 nM was added to each well. Plates were incubated for 90 min at 37° C., 5% CO2. Media was then removed and 50 ul of chemiluminescent substrate (Tropix Gal-Screen, Applied Biosciences) was added. The plate was incubated for 1 hr at RT and luminescence was detected using the SpectraMax M5 plate reader (Molecular Devices). For each independent trial (single replicate dose curves), data was normalized to the maximum signal per compound tested and an IC50 value was generated using GraphPad Prism software. The average IC50 value for n independent trials (as specified in the table) is reported.
Background: Arrestin recruitment assays detect the binding of arrestin to an activated receptor.

A further data set addresses T3, Cyp2D6 (Homo sapiens, UniProt P10635).
T3 construct: tissue Cyprotex/Evotec AG; host or cells: human liver microsomes
The following applies: PubChem BioAssay ID 1461; read-out: Cyp Inhibition IC50 (μM), Cyp2D6; cited from earlier work.

The subject of data set [2] is cytochrome P450 (Cyp) drug metabolizing enzymes. In words: Time-dependent (mechanism-based) Cyp inhibition. The format is in vitro ADME, human. As for the experimental part:
Cyp enzyme inhibition. Human liver microsomes were pre-incubated with 7 concentrations ([…], duplicate wells) of α-NETA for 30 min.

The next data set addresses T4, hERG (Homo sapiens, UniProt Q12809).
T4 construct: host or cells: CHO
The data set is described as follows: hERG inhibition patch-clamp assay, CHO-hERG cells. The format is cell-based. Particulars: hERG tail current, preliminary studies. As for the experimental part:
Pregnane X receptor (PXR) activation was used as a marker of Cyp induction.
The cell was depolarized, and the hERG tail current was measured, and IC50 determined (Cyprotex/Evotec AG).

Read-outs that look alike come from different tables or passages of the source.

T4 sequence (Q12809 whole entry): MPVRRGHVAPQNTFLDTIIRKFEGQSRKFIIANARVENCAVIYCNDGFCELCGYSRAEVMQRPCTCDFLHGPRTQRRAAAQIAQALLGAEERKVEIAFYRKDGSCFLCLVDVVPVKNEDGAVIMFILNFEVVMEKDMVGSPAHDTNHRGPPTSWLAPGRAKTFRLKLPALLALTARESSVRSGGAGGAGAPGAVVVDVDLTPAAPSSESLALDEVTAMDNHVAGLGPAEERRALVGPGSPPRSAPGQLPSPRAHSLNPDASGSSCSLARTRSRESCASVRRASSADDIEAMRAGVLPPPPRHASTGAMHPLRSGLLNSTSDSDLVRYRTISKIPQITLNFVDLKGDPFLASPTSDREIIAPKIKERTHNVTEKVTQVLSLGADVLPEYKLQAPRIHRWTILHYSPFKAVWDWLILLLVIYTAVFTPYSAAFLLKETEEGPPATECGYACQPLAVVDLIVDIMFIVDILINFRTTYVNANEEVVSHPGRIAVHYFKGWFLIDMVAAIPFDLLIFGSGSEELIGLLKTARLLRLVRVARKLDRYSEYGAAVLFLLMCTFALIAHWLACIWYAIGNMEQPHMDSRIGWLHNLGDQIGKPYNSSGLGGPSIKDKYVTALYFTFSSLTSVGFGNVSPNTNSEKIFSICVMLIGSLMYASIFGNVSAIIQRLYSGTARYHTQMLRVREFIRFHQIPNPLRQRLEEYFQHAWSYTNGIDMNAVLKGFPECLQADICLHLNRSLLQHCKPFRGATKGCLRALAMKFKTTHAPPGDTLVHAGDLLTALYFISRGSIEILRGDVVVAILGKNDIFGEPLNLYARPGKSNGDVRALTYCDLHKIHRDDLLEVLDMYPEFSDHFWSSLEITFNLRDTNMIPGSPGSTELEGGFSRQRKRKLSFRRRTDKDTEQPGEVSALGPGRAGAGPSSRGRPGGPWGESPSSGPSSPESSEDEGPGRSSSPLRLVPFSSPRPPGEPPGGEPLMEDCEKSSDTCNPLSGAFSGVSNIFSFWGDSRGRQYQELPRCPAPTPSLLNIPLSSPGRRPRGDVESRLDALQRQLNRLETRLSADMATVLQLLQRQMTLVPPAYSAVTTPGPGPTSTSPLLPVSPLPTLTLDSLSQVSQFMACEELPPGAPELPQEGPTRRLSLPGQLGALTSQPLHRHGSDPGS
T3 sequence (P10635 whole entry): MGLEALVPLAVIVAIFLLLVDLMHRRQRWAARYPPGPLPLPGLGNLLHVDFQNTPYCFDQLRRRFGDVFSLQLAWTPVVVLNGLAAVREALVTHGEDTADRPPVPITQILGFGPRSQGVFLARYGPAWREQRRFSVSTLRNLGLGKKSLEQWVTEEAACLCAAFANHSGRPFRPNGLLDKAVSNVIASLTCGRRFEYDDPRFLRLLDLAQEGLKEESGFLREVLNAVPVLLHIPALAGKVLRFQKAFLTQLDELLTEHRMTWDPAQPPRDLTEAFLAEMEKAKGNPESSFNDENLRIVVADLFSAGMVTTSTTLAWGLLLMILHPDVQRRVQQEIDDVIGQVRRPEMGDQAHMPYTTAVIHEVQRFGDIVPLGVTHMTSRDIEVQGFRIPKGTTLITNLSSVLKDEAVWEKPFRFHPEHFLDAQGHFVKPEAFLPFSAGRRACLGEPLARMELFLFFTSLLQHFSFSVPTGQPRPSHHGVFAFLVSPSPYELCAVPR

Turning to `C[N+](C)(C)CCC(=O)c1cccc2ccccc12.[I-]` [α-NETA, 2-(α-naphthoyl) ethyltrimethylammonium iodide], the IC50 at (hu)CMKLR1 L1.2 cells was 37 ± 8.9 µM; on CMKLR1 (Table 2, tertiary amines, chemerin 20 nM, CHO transfectants, read-out: β-arrestin IC50 μM mean ± SEM (n)) it was 4.9 ± 1.5 µM; at CMKLR1 (initial studies, 4-5 years earlier, different source of α-NETA, read-out: β-arrestin2 inhibition IC50) it was 0.38 µM; on CMKLR1 (values given in running text b220, read-out: β-arrestin2 assay IC50), 2.3 µM; at Cyp2D6, above 10 µM; on hERG it was above 10 µM. In data set [1], the “mutagenesis (reversion of an obligate histidine mutation)” value was “did not induce mutagenesis”. In data set [2], the “time-dependent (mechanism-based) Cyp inhibition” value is listed as “No time-dependent (mechanism-based) Cyp inhibition was detected”.

One may read the IC50 as the concentration needed to halve the response being measured.

The values above are taken from patent publication US11730705B2, “Small molecule CMKLR1 antagonists in inflammatory disease” (The Board of Trustees of the Leland Stanford Junior …, priority 2019, dated 2023).
